Source: patent publication US20140148482A1, “METHOD FOR SCREENING ANTI-CANCER DRUGS AND METHOD OF CANCER TREATMENT” (National Taiwan University, priority 2012, published 2014)
Where two headings read alike, the source gives them in different places.

What was measured:
[1] = tested on: GADD45β mRNA in Huh-7 cells; test: GADD45β mRNA induction in Huh-7 cells, quantitative RT-PCR; format: cell-based, human; details: 24 hours; for GADD45β mRNA expression induction: Huh-7, 10 uM, FIG. 4B; for GADD45β relative gene expression, Mean: Huh-7 cells, 10 μM, reference control group = 100%
Protocol: (§1) Huh-7 cells, were added with 10 μM of the candidate compound and co-cultured under the same conditions for 24 hours. Sorafenib (10 μM) is used as a positive control group, and Huh-7 cells without compound treatment is used as the reference control group. mRNA levels were assessed through quantitative RT-PCR.
(§2) RNA was extracted using a Trizol reagent (Invitrogen, San Diego, Calif.). cDNAs were synthesized from total RNA (1 μg) using a High Capacity cDNA Archive kit (Applied Biosystems, Foster City, Calif.) and quantified using the TaqMan-Universal or SYBR Green PCR Master Mix (Applied Biosystems, Foster City, Calif.) on an ABI PRISM 7900 Sequence Detection System (Applied Biosystems, Foster City, Calif.). The primers for the GADD45β, GADD45γ and c-jun genes were purchased from Applied Biosystems (ABI TaqMan assay ID: Hs00169587_ml, Hs00198672_ml and Hs00277190_s1). Primers for the hypoxanthine phosphoribosyltransferase (HPRT; sense 5′-[…]-3′ and antisense 5′-[…]-3′) gene were used as endogenous controls. Conditions for PCR were as follows: 50° C. for 2 minutes, 95° C. for 10 minutes, and then 40 cycles of 95° C. for 15 seconds (denaturation) and 60° C. for 1 minute (annealing/extension). The relative mRNA amount of the target/control genes was calculated using the ΔCt (threshold cycle) method: relative expression=2−ΔCt, where ΔCt=Ct (target gene)−Ct (control gene). The gene expression of the reference control group is as 100%.
The effects of GADD45β mRNA induction by different concentrations of the candidate compounds were tested.

[2] = tested on: c-jun mRNA in Huh-7 cells; test: c-jun mRNA induction in Huh-7 cells, quantitative RT-PCR; format: cell-based, human; details: 10 μM, 24 hours, reference control group = 100%
Protocol: as §1, §2

[3] = tested on: GADD45γ mRNA in Huh-7 cells; test: GADD45γ mRNA induction in Huh-7 cells, quantitative RT-PCR; format: cell-based, human; details: for GADD45γ relative gene expression, Mean: Huh-7 cells, 10 μM, 24 hours, reference control group = 100%; for screening criterion: increased expression of GADD45 family: 300% or above of GADD45γ expression, 800% or above of GADD45β expression, or both, Table 1
Protocol: as §1, §2
(§3) SC-20 was then tested for GADD45β, GADD45γ and c-Jun mRNA in sorafenib-sensitive (Huh-7) and sorafenib-resistant (Huh-7R) cell lines. The cell culture and the steps of SC-20 treatment were as described above. The concentration of SC-20 and was 10 μm. Said mRNA was measured via qRT-PCR.
as §2, with “Hs00277190_sl).” for “Hs00277190_s1).”, “gene).” for “gene). The gene expression of the reference control group is as 100%.”

Hep3B cells [4] = test: MTT cell viability, Hep3B; details: for cell viability of Hep3B (percentage of surviving cells): 72 hours of drug treatment, FIG. 2A
Protocol: (§7) Cell viability was assessed using an MTT (3-(4,5-dimethylthiazol-2-yl)-2,5-diphenyltetrazolium bromide) assay
(§8) Cells were cultured in DMEM, containing 10% fetal bovine serum, penicillin (100 units/mL), streptomycin (100 μg/mL), L-glutamine (2 mmol/L), and sodium pyruvate (1 mmol/L) at 37° C. in a humidified incubator containing 5% CO2.
(§9) Then the cells were collected and measured via an MTT assay.

[5] = tested on: HCC cells (Huh-7, Hep3B, Huh-7R); test: MTT cell viability of HCC cells (FIG. 2A); format: cell-based, human; details: 72 hours, especially in sorafenib-resistant cell lines (Hep3B and Huh-7R)
Protocol: as §7
(§10) The HCC cell line, Hep3B, was obtained from the American Type Culture Collection (ATCC), and the Huh-7 cell line was from the Health Science Research Resources Bank. Cells were cultured in DMEM, containing 10% fetal bovine serum, penicillin (100 units/mL), streptomycin (100 μg/mL), L-glutamine (2 mmol/L), and sodium pyruvate (1 mmol/L) at 37° C. in a humidified incubator containing 5% CO2. A sorafenib-resistant cell line, Huh-7R, was generated through continuous treatment of Huh-7 cells with sorafenib up to 10 μmol/L.Human umbilical vein endothelial cells (HUVEC) were procured from ScienCell Research Laboratories, CA. HUVECs were maintained in endothelial cell culture medium (ScienCell) to selectively promote growth at 37° C. in a 5% CO2 incubator.
as §9

Hep3B cells [6] = details: human, 72 h
Protocol: as §7, §8, §9

Huh-7 cells [7] = test: MTT cell viability, Huh-7; format: cell-based, human; details: sorafenib-sensitive Huh-7, 72 hours, FIG. 5A
Protocol: as §7
The HCC cell line, Hep3B, was obtained from the American Type Culture Collection (ATCC), and the Huh-7 cell line was from the Health Science Research Resources Bank. Cells were cultured in DMEM, containing 10% fetal bovine serum, penicillin (100 units/mL), streptomycin (100 μg/mL), L-glutamine (2 mmol/L), and sodium pyruvate (1 mmol/L) at 37° C. in a humidified incubator containing 5% CO2.
Huh-7 and Hep3B cells were treated with sorafenib, SC-3 or SC-20 for 72 hours, and the cell viability was assessed using an MTT assay.

[8] = tested on: HUVEC (human umbilical venous endothelial cells); test: MTT cell viability, HUVEC; format: cell-based; details: 72 hours, especially in 5 uM treatments, FIG. 2B
Protocol: as §7, §10, §9

[9] = tested on: GADD45γ mRNA in Huh-7R cells; test: GADD45γ mRNA induction in sorafenib-resistant Huh-7R cells, qRT-PCR; format: cell-based, human; details: 10 μm, cut-off more than 300%, FIG. 3B
Protocol: as §3
as §2, with “Hs00277190_sl).” for “Hs00277190_s1).”, “gene).” for “gene). The gene expression of the reference control group is as 100%.”

p-ERK in Huh-7 cells = test: phospho-ERK protein level by Western blotting, Huh-7; format: cell-based, human; details: Huh-7, 24 hours, FIG. 4A
Protocol: (§4) Total-ERK, and phospho-ERK protein levels in HCC cells after sorafenib, SC-3 or SC-20 treatment at 24 hours. Whole-cell lysates after drug treatment were examined using Western blotting. Whole cell lysates of HCC cells after drug treatment were prepared and quantified as previously described (Ou D L et al. Cancer Res. 2010; 70:9309-18). SDS-PAGE and Western blot analysis were performed to measure protein expression. Signals were visualized using a UVP Imaging System (UVP, Upland, Calif.), or with X-ray film.

p-ERK in Hep3B cells = test: phospho-ERK protein level by Western blotting, Hep3B; format: cell-based, human; details: 24 hours, FIG. 4A
Protocol: as §4

Huh-7 cells [10] = test: Apoptosis induction (Sub-G1) by flow cytometry; format: cell-based, human; details: Huh-7, FIGS. 5B and 5C
Huh-7 xenograft = test: Subcutaneous xenograft model of HCC, Huh-7; format: in vivo, mice; details: SC-20 20 mg/kg/d vs sorafenib 50 mg/kg/d
Protocol: (§5) The protocol for the in vivo studies was approved by the Institutional Animal Care and Use Committee of College of Medicine, National Taiwan University. All the animal studies were performed according to the criteria outlined in the Guide for the Care and Use of Laboratory Animals prepared by National Academy of Sciences and published by NIH. Male BALB/c athymic (nu+/nu+) mice were inoculated subcutaneously with Huh-7 cells or Huh-7R cells (˜1×10^6). When the tumor volume reached ˜100 mm3 [volume (mm3)=(width)2×length×0.5], the mice were randomized into six treatment groups (n≧6 in each group): (a) vehicle control, (b) SC-20: 5 mg/kg/d, (c) SC-20: 10 mg/kg/d, (d) SC-20: 20 mg/kg/d, (e) SC-20: 50 mg/kg/d and (f) sorafenib: 50 mg/kg/d. Drug treatment was given daily via gavage. Tumor volume and body weight were recorded every 7 days. Tumor images from mice are from sacrifices at 25 days of treatment.
(§6) An additional mice were used to establish xenografts to observe survival time. For these experiments, mice with subcutaneously tumors (100 mm^3) were treated as described above. Survival was monitored until the experiments were terminated due to heavy tumor burden over 2000 mm^3 (FIG. 6C). Tx start, treatment start time; Tx stop, treatment stop time.

Huh-7R xenograft = test: Subcutaneous xenograft model of HCC, Huh-7R; format: in vivo, mice; details: SC-20 20 mg/kg/d vs sorafenib 50 mg/kg/d
Protocol: as §5, §6

BNL-MEA allograft = test: Orthotopic allograft model of HCC, BNL-MEA; format: in vivo, mice
Protocol: The protocol for the in vivo studies was approved by the Institutional Animal Care and Use Committee of College of Medicine, National Taiwan University. All the animal studies were performed according to the criteria outlined in the Guide for the Care and Use of Laboratory Animals prepared by National Academy of Sciences and published by NIH. BALB/c mice were anaesthetized with isoflurane, and a small transverse incision was made in the left abdomen. BNL-MEA cells (˜1.5×10^5) suspended in 20 μl PBS were slowly injected with a 30-gauge needle into the left liver lobe, which was exposed through the incision. After injection, the incision was closed by suture with absorbable material. Five days after the surgery, the mice were randomized to three treatment groups (n≧4 in each group): (a) vehicle control, (b) SC-20 20 mg/kg/d and (c) sorafenib 10 mg/kg/d. Drug treatment was given daily via gavage. Mice sacrificed after twenty-five treatments were used as end-points of the therapeutic effect. In FIG. 7C, the arrows indicated the tumors.

CNC(=O)c1cc(Oc2ccc(NC(=O)Nc3ccc(Cl)c(C(F)(F)F)c3)cc2)ccn1 [sorafenib, Sorafenib, reference compound]
GADD45β mRNA expression induction [1]: significantly induced | GADD45β relative gene expression, Mean [1]: 2226.40% | c-Jun relative gene expression, Mean [2]: 447.28% | GADD45γ relative gene expression, Mean [3]: 1377.54% | cell viability of Hep3B (percentage of surviving cells) (Hep3B cells [4]): 68.57%

CC(=O)Nc1cccc2c(Oc3ccc(NC(=O)c4cc(C(F)(F)F)cc(C(F)(F)F)c4)c(C)c3)ccnc12 [SC-22]
GADD45β relative gene expression, Mean [1]: 340.21% | c-Jun relative gene expression, Mean [2]: 183.54% | GADD45γ relative gene expression, Mean [3]: 229.94%

N#Cc1ccc(Oc2ccc3cccc(NC(=O)Nc4ccc(Cl)c(C(F)(F)F)c4)c3c2)cc1 [SC-72]
GADD45β relative gene expression, Mean [1]: 1951.02% | c-Jun relative gene expression, Mean [2]: 552.00% | screening criterion: increased expression of GADD45 family [3]: satisfied the increased expression of GADD45 family | GADD45γ relative gene expression, Mean [3]: 1522.00% | growth inhibition of HCC cells compared with sorafenib [5]: even more potent than sorafenib | cell viability of Hep3B (percentage of surviving cells) (Hep3B cells [6]): 15.65%

Cc1cc(Oc2ccnc3c(N)cccc23)ccc1NC(=O)c1cc(C(F)(F)F)cc(C(F)(F)F)c1 [SC-21]
GADD45β relative gene expression, Mean [1]: 94.65% | c-Jun relative gene expression, Mean [2]: 77.51% | GADD45γ relative gene expression, Mean [3]: 96.65%

Cc1cc(Oc2ccnc3c([N+](=O)[O-])cccc23)ccc1NC(=O)c1cc(C(F)(F)F)cc(C(F)(F)F)c1 [SC-20]
GADD45β mRNA expression induction [1]: significantly induced | GADD45β relative gene expression, Mean [1]: 1674.94% | c-Jun relative gene expression, Mean [2]: 515.47% | screening criterion: increased expression of GADD45 family [3]: satisfied the increased expression of GADD45 family | GADD45γ relative gene expression, Mean [3]: 364.16% | GADD45γ mRNA induction ([3]; sorafenib-sensitive Huh-7, 10 μm, cut-off more than 300%, FIG. 3A): can be induced | growth inhibition of HCC cells compared with sorafenib [5]: even more potent than sorafenib | cell growth inhibition compared with sorafenib (Huh-7 cells [7]): more potency than sorafenib | growth inhibition of HUVECs compared with sorafenib [8]: even more potent than sorafenib | GADD45γ mRNA induction [9]: can be induced | reduction of p-ERK (p-ERK in Huh-7 cells): incapable of reducing p-ERK | reduction of p-ERK (p-ERK in Hep3B cells): incapable of reducing p-ERK | apoptosis induction (Sub-G1) compared with sorafenib (Huh-7 cells [10]): more potency than sorafenib in inducing apoptosis | mice survival time (Huh-7 xenograft; FIG. 6C): significantly prolong mice survival times more than highly dose of sorafenib | tumor growth inhibition (Huh-7 xenograft; daily gavage, FIG. 6A): significantly inhibited tumor growth more than highly dose of sorafenib | mice survival time (Huh-7R xenograft; FIG. 6C): significantly prolong mice survival times more than highly dose of sorafenib | tumor growth inhibition (Huh-7R xenograft; daily gavage, FIG. 6B): significantly inhibited tumor growth more than highly dose of sorafenib | tumor growth in terms of tumor volume and weight (BNL-MEA allograft; BNL-MEA allograft, SC-20 20 mg/kg/d, daily gavage, twenty-five treatments, FIGS. 7A and 7B): significantly inhibited tumor growth | tumor growth inhibition compared with sorafenib (BNL-MEA allograft; orthotopic model, SC-20 20 mg/kg/d vs sorafenib 10 mg/kg/d, FIG. 7C): inhibited tumor growth significantly more than sorafenib | cell viability of Hep3B (percentage of surviving cells) (Hep3B cells [4]): 36.78% | cell growth inhibition compared with sorafenib (Hep3B cells [4]; sorafenib-resistant Hep3B, 72 hours, FIG. 5A): more potency than sorafenib

N#Cc1ccc(Oc2ccc(NC(=O)Nc3ccc(Cl)c(C(F)(F)F)c3)cc2)cc1 [SC-1]
GADD45β relative gene expression, Mean [1]: 1156.44% | c-Jun relative gene expression, Mean [2]: 343.08% | screening criterion: increased expression of GADD45 family [3]: satisfied the increased expression of GADD45 family | GADD45γ relative gene expression, Mean [3]: 402.46%
